According to patent US7642280B2, “Inhibitors of acyl glucosaminyl inositol amidase and methods of use” (The Regents of the University of California, priority 2001, dated 2010):
Like-named read-outs stand apart in the source and are kept apart here.

Key:
M. tuberculosis MCA = M. tuberculosis MCA (Mycobacterium tuberculosis, UniProt P9WJN1); test: biochemical
[1] = molecular target: mycothiol S-conjugate amidase (MCA) (Mycolicibacterium smegmatis, UniProt A0R2W9); test: Fluorescence-detected HPLC assay of MCA cleavage of MSmB (50 μM MSmB as substrate), Examples 1 and 3; assay type: biochemical
Sequence of mycothiol S-conjugate amidase (MCA) (A0R2W9 whole entry): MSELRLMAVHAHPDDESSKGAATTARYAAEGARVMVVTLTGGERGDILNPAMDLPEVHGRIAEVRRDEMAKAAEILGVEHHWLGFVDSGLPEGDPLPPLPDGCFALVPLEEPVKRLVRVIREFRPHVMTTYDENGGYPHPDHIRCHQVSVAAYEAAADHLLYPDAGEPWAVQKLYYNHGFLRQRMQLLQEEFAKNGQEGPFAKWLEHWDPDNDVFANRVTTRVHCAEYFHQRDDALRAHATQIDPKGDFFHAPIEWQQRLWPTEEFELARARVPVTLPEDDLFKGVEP

[2] = molecular target: Mycobacterium smegmatis mycothiol-S-conjugate amidase (MCA) (Mycolicibacterium smegmatis, UniProt A0R2W9); test: Fluorescence-based HPLC IC50 assay, wild type M. smegmatis MCA with natural MSmB; assay type: biochemical
Sequence of Mycobacterium smegmatis mycothiol-S-conjugate amidase (MCA) (A0R2W9 whole entry): as above

[3] = recombinant M. tuberculosis MCA approx. 20 nM, 30 μM synthetic MSmB, 20 min, 31° C., read-out: IC50 M. tb
[4] = 50 μM MSmB as substrate, read-out: concentration that inhibited mycothiol S-conjugate amidase by 50%
[5] = wild type M. smegmatis MCA approx. 20 nM, 30 μM natural MSmB, 20 min, 31° C., read-out: IC50 M. smeg

Sequence of M. tuberculosis MCA (P9WJN1 whole entry): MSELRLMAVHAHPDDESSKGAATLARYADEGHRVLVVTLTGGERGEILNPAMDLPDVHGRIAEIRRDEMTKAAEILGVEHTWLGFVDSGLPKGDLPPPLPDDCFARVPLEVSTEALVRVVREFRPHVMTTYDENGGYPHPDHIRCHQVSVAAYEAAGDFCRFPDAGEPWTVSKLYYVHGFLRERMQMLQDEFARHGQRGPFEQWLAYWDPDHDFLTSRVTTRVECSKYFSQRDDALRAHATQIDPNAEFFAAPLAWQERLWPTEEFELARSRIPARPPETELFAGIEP

| Compound | IC50 (M. tuberculosis MCA; [3]) [µM] | IC50 [2, 5] [µM] | other results |
| --- | --- | --- | --- |
| COC1=C(Br)[C@@H](O)[C@]2(C=C1Br)CC(C(=O)NCCc1[nH]c(N)nc1-c1cc(O)c3ncc(O)c(O)c3c1O)=NO2 [Compound 1] | 3 |  | IC50 [1]: 2 µM; IC50 [2]: 2 µM |
| COC1=C(Br)[C@@H](O)[C@]2(C=C1Br)CC(C(=O)NCCc1cnc(N)[nH]1)=NO2 [Compound 2, Pseudoceratine] | 100 | 100 | IC50 [1, 4]: 100 µM |
| COC1=C(Br)C[C@]2(OC=C1Br)ON=C(C(=O)NCCCOc1c(Br)cc(C(O)CN)cc1Br)[C@@H]2O (stereo partly shown) [Compound 4, psammaplysin B] | 30 | 20 | IC50 [1, 4]: 3 µM |
| CN1C(=O)[C@]23CC4=CC=C[C@H](O)[C@H]4N2C(=O)[C@@]1(CO)SS3 [Compound 12, Gliotoxin] |  | 30 | IC50 (M. tuberculosis MCA): 30 µM |
| CS[C@]1(CO)C(=O)N2[C@H]3C(=CC=C[C@@H]3O)C[C@@]2(SC)C(=O)N1C [Compound 13, S,S-dimethyl gliotoxin] |  | 280 |  |
| COc1cc(O)c2c(c1)C(=O)c1cc(C)cc(O)c1C2=O [Compound 14, Physcion] |  | 50 |  |
| O=c1c(O)c[nH]c2c(O)ccc(O)c12 [uranidine, reference compound] |  |  | inhibitory activity against MCA (in words) ([1]; 50 μM MSmB as substrate, absence of cleavage product AcCys-bimane): ineffective |
| Oceanapiside [Compound 7] | 10 | 0.5 | IC50 ([1]; 50 μM MSmB as substrate, read-out: IC50 amidase inhibition (Example 3, FIG. 6)): 5 µM |
| Suvanine [Compound 10] |  | 60 |  |
| halisulfate 1 [Compound 11] |  | 40 |  |
| oceanapiside aglycon [Compound 8] | 20 |  |  |
| psammaplysin A [Compound 3] | 30 | 30 |  |
